# Source: patent publication US20120214743A1, “ITCH SUPPRESSANT” (University of Occupational and Environmental Health, Japan, priority 2009, published 2012)
# Ends that are not written are not given here. * marks the point of attachment. SO3H = O=S(=O)(O)*
# Experiments:
# [1] = tested on: ICR mice; assay: SP-induced scratch behavior in ICR mice; type: in vivo, mouse; details: transdermal, 0.5 nmol/site in acetone/olive (3:1), tape-stripped skin, 3-4 minutes before SP 100 nmol/site intradermal; FIG. 3
# Method: Since it is considered that external administration of CCK affects keratinocytes, at first, CCK2R agonist was administered transdermally (applying the solution prepared using acetone-olive (3:1)) to itch-related behavior model (ICR mice administered intradermally with SP (100 nmol)).
# The hair was clipped over the rostral part of the murine back one or two days prior to experiment. Before behavioral recording, each mouse (4 animals per observation) was put into an acrylic cage (18×23×11 cm) for at least 1 hr for acclamation. An intradermal injection of SP (100 nmol in normal saline per site) induces scratching of the skin around the injected site by the hind paws in mice. CCKs were topically applied in the two ways, percutaenous application and intradermal injection. For percutaneous application, the shaved back skin was stripped with Scotch tape (3M) 6 times the day before the experiment. The mice were painted on the clipped back with 20 μL CCK (0.5 nmol/site) in acetone/olive (3:1) 3-4 minutes before SP injection (100 nmol/site). […] Immediately after treatment, the animals were put back into the same cage and their behavior was videotaped using a digital video camera for 40 minutes. The frequency of scratch toward the injected site by hind paws was counted for the first 20 minutes with the video.
# [2] = tested on: normal human keratinocytes (NHEKs); assay: DNA microarray of mRNA expression in stimulated normal human keratinocytes; type: cell-based; details: histamine 10 μM/mL, SLIGRL-NH2 100 nM
# Method: For DNA microarray analysis, total RNA was extracted from NHEKs with the RNeasy Mini Kit (QIAGEN, Valencia, Calif.). Images obtained from a plate reader were analyzed with DNASIS Array (DNA CHIP RESERCH Inc., Hitachi Software Engineering, Tokyo, Japan), according to the manufacturer's instructions.
# The values are log2 (mRNA expression level of each stimulated sample/expression level of the control).
Compound,"scratch behavior (frequency of scratch, first 20 minutes) [1]","ACTL7B mRNA, log2 (expression level of stimulated sample/expression level of the control) ([2]; NHEKs, Ca 0.6 mM, SP 10^−6 M)","ANKRD6 mRNA, log2 (expression level of stimulated sample/expression level of the control) ([2]; NHEKs, Ca 0.6 mM, SP 10^−6 M)","BUB1B mRNA, log2 (expression level of stimulated sample/expression level of the control) ([2]; NHEKs, Ca 0.6 mM, SP 10^−6 M)","CCK2R mRNA, log2 (expression level of stimulated sample/expression level of the control) ([2]; NHEKs, Ca 0.6 mM, SP 10^−6 M)","FCN3 mRNA, log2 (expression level of stimulated sample/expression level of the control) ([2]; NHEKs, Ca 0.6 mM, SP 10^−6 M)","MAP3K1 mRNA, log2 (expression level of stimulated sample/expression level of the control) ([2]; NHEKs, Ca 0.6 mM, SP 10^−6 M)","MMP9 mRNA, log2 (expression level of stimulated sample/expression level of the control) ([2]; NHEKs, Ca 0.6 mM, SP 10^−6 M)","PDE7B mRNA, log2 (expression level of stimulated sample/expression level of the control) ([2]; NHEKs, Ca 0.6 mM, SP 10^−6 M)","PTN mRNA, log2 (expression level of stimulated sample/expression level of the control) ([2]; NHEKs, Ca 0.6 mM, SP 10^−6 M)","SERPINI2 mRNA, log2 (expression level of stimulated sample/expression level of the control) ([2]; NHEKs, Ca 0.6 mM, SP 10^−6 M)",changes in the expression levels of CCK2R in stimulated NHEKs [2],also measured
"Tyr(SO3H)-Met-Gly-Trp-Met-Asp-Phe-NH2 (Y(SO3H)MGWMDF-NH2; N-terminus assumed; SMILES CSCC[C@H](NC(=O)[C@H](Cc1c[nH]c2ccccc12)NC(=O)CNC(=O)[C@H](CCSC)NC(=O)[C@@H](N)Cc1ccc(OS(=O)(=O)O)cc1)C(=O)N[C@@H](CC(=O)O)C(=O)N[C@@H](Cc1ccccc1)C(N)=O) [CCK7S, natural type cholecystokinin, tyrosine at seventh position from C-terminal sulfated]",significant reduction,,,,,,,,,,,,
Ser-Leu-Ile-Gly-Arg-Leu-NH2 (SLIGRL-NH2) [synthetic agonist of PAR-2],,0.84 log2,−0.17 log2,0.52 log2,0.06 log2,−0.62 log2,0.64 log2,0.11 log2,1.00 log2,0.12 log2,0.72 log2,no significant changes,"ARG1 mRNA, log2 (expression level of stimulated sample/expression level of the control) ([2]; NHEKs, Ca 0.6 mM, SP 10^−6 M): 0.71 log2; CYP17A1 mRNA, log2 (expression level of stimulated sample/expression level of the control) ([2]; NHEKs, Ca 0.6 mM, SP 10^−6 M): 0.92 log2"
"Met-Gly-Trp-Met-Asp-Phe-NH2 (MGWMDF-NH2) [CCK6, cholecystokinin analogue without the tyrosine]",no significant reduction,,,,,,,,,,,,
"NCCc1c[nH]cn1 [histamine, Histamine]",,0.63 log2,0.00 log2,−1.09 log2,−0.01 log2,−0.23 log2,0.88 log2,4.02 log2,0.12 log2,−0.14 log2,0.38 log2,no significant changes,"CKM mRNA, log2 (expression level of stimulated sample/expression level of the control) ([2]; NHEKs, Ca 0.6 mM, SP 10^−6 M): 1.04 log2; F10 mRNA, log2 (expression level of stimulated sample/expression level of the control) ([2]; NHEKs, Ca 0.6 mM, SP 10^−6 M): 1.36 log2; NDRG4 mRNA, log2 (expression level of stimulated sample/expression level of the control) ([2]; NHEKs, Ca 0.6 mM, SP 10^−6 M): 1.59 log2"
"Asp-Tyr-Met-Gly-Trp-Met-Asp-Phe-NH2 (DYMGWMDF-NH2) [CCK8, cholecystokinin analogue in which the tyrosine is not sulfated]",no significant reduction,,,,,,,,,,,,
"Tyr-Met-Gly-Trp-Met-Asp-Phe-NH2 (YMGWMDF-NH2) [CCK7, cholecystokinin analogue in which the tyrosine is not sulfated]",no significant reduction,,,,,,,,,,,,
